This note sets out measurements from paper PMC12464775, “Selective and Potent Peptide Binders of RNF43 for Wnt Signaling Inhibition” (ACS Central Science, 2025).

In one assay the test system is ZNRF3. Briefly: SPR binding to ZNRF3 (specificity). As to conditions: for binding to ZNRF3: protein immobilized, untagged DCP injected. The procedure:
(§1) SPR measurement was carried out using a Biacore S200 (Cytiva) instrument, with PBS-T (PBS with 0.05% Tween 20, pH 7.4) as the buffer. Biotinylated protein was captured on three sensor channels of Series S SA Sensors (Cytiva). The sensors were then blocked with 0.1 mg/mL biotin. DCPs were injected onto the sensor in a 3× concentration series. The data were double-referenced by subtracting the signal from a sensor channel coated with biotin only and the signal from a buffer injection. For data analysis, binding data were fitted using the manufacturer’s software. ,
Background: SPR reads the build-up and loss of mass on a sensor chip optically.

The target of a further assay is T1, human RNF43 (Homo sapiens, UniProt Q68DV7).
T1 construct: ECD of the human RNF43 protein was incubated with EZ-link-NHS-PEG4-biotin; biotin (chemical label, NHS-PEG4-biotin on amines, 1-2 per protein)
T1 sequence (Q68DV7 24-197 limits assumed): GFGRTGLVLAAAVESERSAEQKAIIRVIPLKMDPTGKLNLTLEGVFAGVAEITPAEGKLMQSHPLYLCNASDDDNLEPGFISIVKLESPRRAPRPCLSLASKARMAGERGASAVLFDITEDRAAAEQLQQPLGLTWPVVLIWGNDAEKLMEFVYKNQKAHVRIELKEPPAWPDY
Put plainly: SPR binding of DCPs to immobilized human RNF43 ECD. As to conditions: SPR KD; each round of affinity maturation versus its parent DCP. The protocol: ECD of the human RNF43 protein was incubated with EZ-link-NHS-PEG4-biotin (Thermo Fisher, 1:1, 50 μM) for 1 h at room temperature (RT). The reaction was quenched by addition of 10 mM Glycine, followed by dialysis into phosphate buffered saline (PBS) overnight at 4 °C. Finally, the biotinylated protein was analyzed using LC-MS to ensure that each protein is labeled with 1–2 biotin molecules. ,
as §1

Bridge positions count the residues as written; N and C are the ends. Peptide text beside a SMILES is read from it. * marks the point of attachment. Biotin = O=C1N[C@H]2[C@H](CS[C@H]2CCCCC(=O)*)N1

As for `CC[C@H](C)[C@H](NC(=O)[C@@H]1CSSC[C@H](NC(=O)[C@H](CCC(N)=O)NC(=O)[C@@H](NC(=O)[C@H](Cc2ccc(O)cc2)NC(=O)[C@@H](NC(=O)[C@H](CC(C)C)NC(=O)CNC(=O)[C@@H]2CSSC[C@H](NC(=O)[C@H](CCC(N)=O)NC(=O)[C@@H](N)CCC(=O)O)C(=O)N[C@@H](CC(=O)O)C(=O)N[C@@H](CCC(N)=O)C(=O)N[C@@H](CC(=O)O)C(=O)N[C@@H](C)C(=O)N[C@@H](CO)C(=O)N[C@@H](C)C(=O)N2)[C@@H](C)CC)[C@@H](C)O)C(=O)N[C@H]2CSSC[C@H](NC(=O)[C@H](CC(=O)O)NC(=O)[C@H](CC(C)C)NC(=O)[C@@H]3CCCN3C(=O)[C@H](Cc3c[nH]c4ccccc34)NC2=O)C(=O)N[C@@H](CCCNC(=N)N)C(=O)N[C@@H](Cc2c[nH]c3ccccc23)C(=O)N[C@@H](C)C(=O)N[C@@H](C(C)C)C(=O)N[C@@H](CCCCN)C(=O)N[C@@H](Cc2ccc(O)cc2)C(=O)N[C@@H](CCC(N)=O)C(=O)N[C@@H](Cc2c[nH]c3ccccc23)C(=O)N[C@@H](Cc2ccccc2)C(=O)N[C@@H](Cc2c[nH]c3ccccc23)C(=O)N[C@@H](CC(=O)O)C(=O)N1)C(=O)NCC(=O)O` [GUR-1.6.12.12] (H-EQCDQDASACGLIYTQCCWPLDCRWAVKYQWFWDCIG-OH; disulfide 3-10, 17-35, 18-23), the “binding to ZNRF3” value in the assay on ZNRF3 is on record as “lack of binding”.

In the case of `CC[C@H](C)[C@H](NC(=O)[C@@H]1CSSC[C@H](NC(=O)[C@@H](NC(=O)[C@H](Cc2c[nH]cn2)NC(=O)[C@H](CO)NC(=O)[C@H](Cc2ccc(O)cc2)NC(=O)[C@H](CC(=O)O)NC(=O)[C@H](Cc2c[nH]cn2)NC(=O)[C@@H]2CSSC[C@H](NC(=O)[C@H](CCC(N)=O)NC(=O)[C@H](CCC(=O)O)NC(=O)CCCC[C@@H]3SC[C@@H]4NC(=O)N[C@@H]43)C(=O)N[C@@H]([C@@H](C)O)C(=O)N[C@@H](CO)C(=O)N[C@@H]([C@@H](C)O)C(=O)N[C@@H](CCC(N)=O)C(=O)N[C@@H](CC(=O)O)C(=O)N[C@@H](CC(C)C)C(=O)N2)C(C)C)C(=O)N[C@H]2CSSC[C@H](NC(=O)[C@H](CC(=O)O)NC(=O)[C@H](CC(C)C)NC(=O)[C@@H]3CCCN3C(=O)[C@H](Cc3c[nH]c4ccccc34)NC2=O)C(=O)N[C@@H](CCCNC(=N)N)C(=O)N[C@@H](Cc2c[nH]c3ccccc23)C(=O)N[C@@H](C)C(=O)N[C@@H](C(C)C)C(=O)N[C@@H](CCCCN)C(=O)N[C@@H](Cc2ccc(O)cc2)C(=O)N[C@@H](CCC(N)=O)C(=O)N[C@@H](Cc2c[nH]c3ccccc23)C(=O)N[C@@H](Cc2ccccc2)C(=O)N[C@@H](Cc2c[nH]c3ccccc23)C(=O)N[C@@H](CC(=O)O)C(=O)N1)C(=O)NCC(=O)O` [bio-GUR-1.6.12.2] (Biotin-EQCTSTQDLCHDYSHVCCWPLDCRWAVKYQWFWDCIG-OH; disulfide 3-10, 17-35, 18-23), the “binding to ZNRF3, peptide immobilized” value in the assay with ZNRF3 (bio-GUR-1.6.12.2 on streptavidin sensor) is “without binding to ZNRF3”.

As for `CC[C@H](C)[C@H](NC(=O)[C@@H]1CSSC[C@H](NC(=O)[C@H](CO)NC(=O)[C@H](Cc2c[nH]cn2)NC(=O)[C@@H](NC(=O)[C@@H]2CCCN2C(=O)[C@H](CCC(N)=O)NC(=O)[C@@H](NC(=O)[C@@H]2CSSC[C@H](NC(=O)[C@H](CCC(N)=O)NC(=O)[C@@H](N)CCC(=O)O)C(=O)N[C@@H](CCCNC(=N)N)C(=O)N[C@@H](CCC(=O)O)C(=O)N[C@@H](Cc3c[nH]cn3)C(=O)N[C@@H](Cc3ccccc3)C(=O)N[C@@H](Cc3c[nH]cn3)C(=O)N[C@@H](CC(=O)O)C(=O)N2)C(C)C)[C@@H](C)CC)C(=O)N[C@H]2CSSC[C@H](NC(=O)[C@H](CC(=O)O)NC(=O)[C@H](CC(C)C)NC(=O)[C@@H]3CCCN3C(=O)[C@H](Cc3c[nH]c4ccccc34)NC2=O)C(=O)N[C@@H](CCCNC(=N)N)C(=O)N[C@@H](Cc2c[nH]c3ccccc23)C(=O)N[C@@H](C)C(=O)N[C@@H](C(C)C)C(=O)N[C@@H](CCCCN)C(=O)N[C@@H](Cc2ccc(O)cc2)C(=O)N[C@@H](CCC(N)=O)C(=O)N[C@@H](Cc2c[nH]c3ccccc23)C(=O)N[C@@H](Cc2ccccc2)C(=O)N[C@@H](Cc2c[nH]c3ccccc23)C(=O)N[C@@H](CC(=O)O)C(=O)N1)C(=O)NCC(=O)O` [GUR-1.6.12.16] (H-EQCREHFHDCVQPIHSCCWPLDCRWAVKYQWFWDCIG-OH; disulfide 3-10, 17-35, 18-23), in the assay with ZNRF3, the “binding to ZNRF3” value is reported as “lack of binding”.

For `CC[C@H](C)[C@H](NC(=O)[C@@H]1CSSC[C@@H]2NC(=O)[C@H](CC(=O)O)NC(=O)[C@H](CC(C)C)NC(=O)[C@H](Cc3ccc(O)cc3)NC(=O)[C@H](Cc3ccc(O)cc3)NC(=O)[C@@H]3CCCN3C(=O)[C@H]([C@@H](C)CC)NC(=O)[C@@H]3CSSC[C@H](NC(=O)[C@H](CC(=O)O)NC(=O)[C@H](CC(C)C)NC(=O)[C@@H]4CCCN4C(=O)[C@H](Cc4c[nH]c5ccccc45)NC(=O)[C@H](CSSC[C@H](NC(=O)[C@@H](N)CCC(N)=O)C(=O)N[C@@H](C(C)C)C(=O)N[C@@H](CCCCN)C(=O)N[C@@H](CCCCN)C(=O)N[C@@H](CC(=O)O)C(=O)N[C@@H](CCC(=O)O)C(=O)N[C@@H](CC(C)C)C(=O)N3)NC2=O)C(=O)N[C@@H](CCCNC(=N)N)C(=O)N[C@@H](Cc2c[nH]c3ccccc23)C(=O)N[C@@H](C)C(=O)N[C@@H](C(C)C)C(=O)N[C@@H](CCCCN)C(=O)N[C@@H](Cc2ccc(O)cc2)C(=O)N[C@@H](CCC(N)=O)C(=O)N[C@@H](Cc2c[nH]c3ccccc23)C(=O)N[C@@H](Cc2ccccc2)C(=O)N[C@@H](Cc2c[nH]c3ccccc23)C(=O)N[C@@H](CC(=O)O)C(=O)N1)C(=O)NCC(=O)O` [GUR-1.6.12] (H-QCVKKDELCIPYYLDCCWPLDCRWAVKYQWFWDCIG-OH; disulfide 2-17, 9-22, 16-34; N-terminus assumed), the “improvement in affinity for RNF43 over the previous generation” value on human RNF43 is on record as “slightly improved”.

Turning to `CC[C@H](C)[C@H](NC(=O)[C@@H]1CSSC[C@H](NC(=O)[C@H](CCC(N)=O)NC(=O)[C@H](CO)NC(=O)[C@H](Cc2ccc(O)cc2)NC(=O)[C@H](CCCCN)NC(=O)[C@H](Cc2ccccc2)NC(=O)[C@H](CC(N)=O)NC(=O)[C@@H]2CSSC[C@H](NC(=O)[C@H](CCC(N)=O)NC(=O)[C@@H](N)CCC(=O)O)C(=O)N[C@@H](CC(=O)O)C(=O)N[C@@H](CCC(N)=O)C(=O)N[C@@H]([C@@H](C)O)C(=O)N[C@@H](CC(N)=O)C(=O)N[C@@H](CC(C)C)C(=O)N[C@@H](Cc3ccccc3)C(=O)N2)C(=O)N[C@H]2CSSC[C@H](NC(=O)[C@H](CC(=O)O)NC(=O)[C@H](CC(C)C)NC(=O)[C@@H]3CCCN3C(=O)[C@H](Cc3c[nH]c4ccccc34)NC2=O)C(=O)N[C@@H](CCCNC(=N)N)C(=O)N[C@@H](Cc2c[nH]c3ccccc23)C(=O)N[C@@H](C)C(=O)N[C@@H](C(C)C)C(=O)N[C@@H](CCCCN)C(=O)N[C@@H](Cc2ccc(O)cc2)C(=O)N[C@@H](CCC(N)=O)C(=O)N[C@@H](Cc2c[nH]c3ccccc23)C(=O)N[C@@H](Cc2ccccc2)C(=O)N[C@@H](Cc2c[nH]c3ccccc23)C(=O)N[C@@H](CC(=O)O)C(=O)N1)C(=O)NCC(=O)O` [GUR-1.6.12.4] (H-EQCDQTNLFCNFKYSQCCWPLDCRWAVKYQWFWDCIG-OH; disulfide 3-10, 17-35, 18-23), in the assay on ZNRF3, the “binding to ZNRF3” value is on record as “lack of binding”.

Regarding `CC[C@H](C)[C@H](NC(=O)[C@@H]1CSSC[C@@H]2NC(=O)[C@H](CC(=O)O)NC(=O)[C@H](CC(C)C)NC(=O)[C@H](Cc3ccc(O)cc3)NC(=O)[C@H](Cc3ccc(O)cc3)NC(=O)[C@@H]3CCCN3C(=O)[C@H]([C@@H](C)CC)NC(=O)[C@@H]3CSSC[C@H](NC(=O)[C@H](CCC(=O)O)NC(=O)[C@H](CC(C)C)NC(=O)[C@@H]4CCCN4C(=O)[C@H](CCC(=O)O)NC(=O)[C@H](CSSC[C@H](NC(=O)[C@@H](N)CCC(N)=O)C(=O)N[C@@H](C(C)C)C(=O)N[C@@H](CCCCN)C(=O)N[C@@H](CCCCN)C(=O)N[C@@H](CC(=O)O)C(=O)N[C@@H](CCC(=O)O)C(=O)N[C@@H](CC(C)C)C(=O)N3)NC2=O)C(=O)N[C@@H](CCCNC(=N)N)C(=O)N[C@@H](Cc2c[nH]c3ccccc23)C(=O)N[C@@H](C)C(=O)N[C@@H](C(C)C)C(=O)N[C@@H](CCCCN)C(=O)N[C@@H](Cc2ccc(O)cc2)C(=O)N[C@@H](CCC(N)=O)C(=O)N[C@@H](Cc2c[nH]c3ccccc23)C(=O)N[C@@H](Cc2ccccc2)C(=O)N[C@@H](Cc2c[nH]c3ccccc23)C(=O)N[C@@H](CC(=O)O)C(=O)N1)C(=O)NCC(=O)O` [GUR-1.6] (H-QCVKKDELCIPYYLDCCEPLECRWAVKYQWFWDCIG-OH; disulfide 2-17, 9-22, 16-34; N-terminus assumed), the “improvement in affinity for RNF43 over the previous generation” value at human RNF43 came to 10 fold.
